Test [1] has as its system P. aeruginosa. The experiment in a line: Anti-adhesion activity on coated titanium disks, CFU count (Example 3). The class given is cell-based, Pseudomonas aeruginosa. As to conditions: 5 mg/cm^2 coating, 30, 60 and 120 minutes. How it is done: (§1) Sterile disks of sandblasted titanium with a diameter of 25 mm and a thickness of 5 mm (Adler Ortho, Cormano, Italy) were used as the substrate for the formation of biofilms. The disks were coated with sub-inhibitory concentrations of vitamin E acetate (5 mg/cm^2) or vitamin E phosphate (5 mg/cm^2). The concentrations were selected based on the MIC results. Uncoated disks were used as negative controls. The anti-adhesion activity of vitamin E was assessed against a representative strain for each species. An overnight bacteria culture was resuspended in Brain Heart Infusion Broth (BHI; Biomérieux) at a density of 1.0×10^7 CFU/ml for each strain, and 400 microliters of microbial suspension were inoculated on coated and uncoated disks. The test was performed in triplicate for each strain. After 30, 60 and 120 minutes of incubation, the disks were washed twice with a sterile saline solution to eliminate non-adherent bacteria. The disks were then immersed in 5 ml of a 0.1 w/v % dithiothreitol solution (DTT, Sigma-Aldrich, Milan, Italy) and mechanically stirred for 15 minutes at room temperature. Suitable dilutions of the fluids obtained were inoculated on Tryptic Soy Agar (TSA, Merck) and incubated at 37° C. in an aerobic atmosphere for 24 hours for the CFU count.

Test [2] deals with S. aureus. The experiment in a line: MIC and MBC, broth microdilution (Example 3). The class given is cell-based, Staphylococcus aureus. Particulars: S. aureus strains. The text has this: This study used clinically relevant strains isolated from patients with prosthetic joint infections at the Microbiology Laboratory of the IRCCS Galeazzi Orthopaedic institute (Italy). In particular, the following were selected: strains of methicillin-resistant Staphylococcus epidermidis, of methicillin-resistant Staphylococcus aureus and of Pseudomonas aeruginosa. These strains were identified beforehand by means of biochemical assays (VITEK® 2 Compact, bioMérieux, Marcy l'Etoile, France) and stored at −80° C. prior to the analysis. Before beginning the study, all strains were screened to assess their ability to produce biofilms, according to the spectrophotometric assay described by Christensen et al. (J Clin Microbiol 1985; 22: 996-1006).
The bacteriostatic and bactericidal activity of vitamin E acetate and vitamin E phosphate against the above-mentioned bacterial strains was assessed by measuring the minimum inhibitory concentration (MIC) and the minimum bactericidal concentration (MBC). MIC, defined as the lowest concentration capable of inhibiting bacterial growth, was determined using the broth microdilution method according to EUCAST guidelines (http://www.eucast.org/clinical_breakpoints/).
(§2) In short, a suspension in Brain Heart Infusion Broth (BHI; Biomérieux, Marci l'Etoile, France) was prepared for each bacterial strain, with an optical density of 0.5 McFarland (1.5×10^8 CFU/ml). The P. acnes broth was supplemented with 5% defibrinated sheep blood (Liofilchem, Roseto degli Abruzzi, Italy). After a concentration of 10^5 UFC/ml was obtained using appropriate dilutions, each suspension was inoculated in a 96-well microtitre plate containing a two-fold serial dilution of vitamin E acetate (VitE-Ac) and vitamin E phosphate. The controls were performed by inoculating bacterial suspensions in BHI alone. […] After incubation at adequate conditions, MBC was read as the lowest concentration capable of killing 99.9% of the initial inoculum.

In test [3] the test system is S. aureus. Kind of test: Anti-adhesion activity on coated titanium disks, CFU count (Example 3). Particulars: 5 mg/cm^2 coating, 30, 60 and 120 minutes. The class given is cell-based, Staphylococcus aureus. How it is done: as §1
The subject of test [4] is S. epidermidis. The test is described as above. The class given is cell-based, Staphylococcus epidermidis. Particulars: 5 mg/cm^2 coating, 30, 60 and 120 minutes. How it is done: as §1
Test [5] deals with P. acnes. The experiment in a line: MIC and MBC, broth microdilution (Example 3). The class given is cell-based. The method, then: as §2, with “MIC, defined as the lowest concentration capable of inhibiting bacterial growth, was determined using the broth microdilution method according to EUCAST guidelines (http://www.eucast.org/clinical_breakpoints/). In short,” for “In short,”, “Infusion Broth ([…], France) was” for “Infusion Broth (BHI; Biomérieux, Marci l'Etoile, France) was”, “sheep blood ([…] Abruzzi, Italy).” for “sheep blood (Liofilchem, Roseto degli Abruzzi, Italy).”
For orientation: Broth dilution looks for growth in wells or tubes with falling amounts of substance.

Where [6] appears, read: kills 99.9% of the initial inoculum.

SMILES strings stand for the structures.

`CC(=O)Oc1c(C)c(C)c2c(c1C)CCC(C)(CCC[C@H](C)CCC[C@H](C)CCCC(C)C)O2` (stereo partly drawn) [Vitamin E acetate, α-tocopherol acetate]: the results for the “decrease in adhesion (in words)” value in test [1], in test [3] and in test [4] were “No effect”, “significant decrease” and “significant decrease”, respectively. In addition, the MIC range is over 200 mg/mL in test [2] (24 hours) and over 200 mg/mL in test [5] (48 hours, broth with 5% defibrinated sheep blood). The MBC range in test [2] (setting [6]) and in test [5] (setting [6]) was over 200 mg/mL each time.

Values taken from patent publication US20190015385A1, “VITAMIN E PHOSPHATE OR ACETATE FOR USE IN THE TREATMENT AND PREVENTION OF BIOFILM INFECTIONS” (priority 2016, published 2019).
